Laboratory results reported in patent US20260009008A1, “SYNTHETIC GENOME EDITING SYSTEM” (Pencil Biosciences Limited, priority 2021, published 2026).
“Also recorded” adds a separate entry of the source.

Experiments:
[1] = test system: plasmid DNA (pBR322); assay: Gel plasmid cleavage assay; assay type: biochemical; settings: for percentage of nicked plasmid with increasing peptide concentration: after 12 hours
Text: For this reason a further gel plasmid cleavage assay was employed to look for cleavage. Such a gel cleavage assay can differentiate between plasmid that is intact (no cleavage), nicked (ssDNA cleavage) and linearised (dsDNA cleavage) as the three plasmid species will migrate differently on an agarose gel. Intact plasmids have a supercoiled structure and therefore can migrate easily through an agarose gel whereas a ssDNA cleavage on the plasmid will relax this supercoiled structure. This produces a relaxed circle/nicked structure that migrates more slowly through the pores. The dsDNA cleavage of a plasmid produces a linearised plasmid. The linear structure migrates faster than a relaxed circular structure although not as fast as the supercoiled structure.
To optimize the assay, plasmid DNA (pBR322) was mixed with increasing concentrations of the peptide bL or bN, in the presence of Zn^2 + ions. […] The percentage of nicked species increases with greater peptide concentration for both bL and bN. […] An increasing proportion of the plasmid DNA is also observed in the wells of the gel. This DNA can be binding to the peptide causing a complex that is unable to migrate into the gel.

[2] = test system: molecular beacon DNA oligonucleotide (SEQ. ID. No. 60); assay: Molecular beacon assay for DNA binding and cleavage; assay type: biochemical; settings: for emission signal of the fluorophore after a 15-minute incubation: peptide:molecular beacon 500:1, beacon 400 nM, 5 mM MnCl2; for signal / disassembly of the molecular beacon with different metal ions: zinc, manganese, calcium and magnesium chloride
Text: A molecular beacon assay was firstly used to screen each of the peptides for DNA binding and cleavage. For the purpose of these studies, the following DNA oligonucleotide containing 33 nucleotides was employed
where the first six nucleotides at each terminus complement one another forming a 6 bp double stranded DNA stem.
The hairpin structure formed contains a fluorescein molecule as a 5′ modification (6-FAM) and a fluorescent quencher (BHQ1) as a 3′ modification. In the hairpin conformation the fluorescent signal of the molecular beacon is reduced. If a peptide binds or causes cleavage, the hairpin structure will disassemble releasing the fluorophore from the quencher.
The reaction conditions were chosen to reflect conditions that might be expected to strengthen the probability of DNA cleavage by each peptide. As noted above, the peptide designs were inspired by the catalytic active sites of known nucleases. Often the divalent metal of choice for such sites is Mg^2 +. […] In contrast Mn^2 + ions require less coordination sites to facilitate catalysis.
Each reaction was carried out in a reaction buffer of 25 mM Tris-HCl (pH 7.5), 130 mM NaCl, 27μM KCl and 5 mM MnCl2. The molecular beacon was provided at a concentration of 400 nM.
The emission signal of the fluorophore after a 15-minute incubation was measured for each peptide mixed with the molecular beacon at a 500:1 concentration ratio.

[3] = Observation of peptide aggregation / precipitation; assay type: physicochemical
[4] = test system: PDS2 dsDNA bait (ACGGGT); assay: ELISA / bio-panning of M13 phage display peptides on biotinylated dsDNA bait PDS2; assay type: binding; settings: peptide displayed in the phage library
Text: (§1) As noted above, a commercially available M13 phage display library was employed (New England Biolabs, catalogue #E8111L) which contains around 1×10^912mer peptides fused to the N-terminus of the phage minor coat protein III. Two different 6 nt dsDNA baits were employed with a biotin tag immobilized on a streptavidin-coated 96 well plate as specified in Table 1 below:
(§2) ELISA assays were used to assess binding of peptides of the phage display library to the PDS1 and PDS2 dsDNA baits using an anti-M13 phage antibody labelled with horseradish peroxidase (HRP). After three rounds of bio-panning and sequence analysis of the bound peptides in the library, two 12 mer peptide sequences were selected, chemically synthesised, and modified as set out in Table 2 below.
(§3) • 1. Blocking step of the streptavidin coated 96 well plate (Fisher Scientific, UK) with the Blocking Buffer (0.1 M NaHCO3 (pH 8.6), 5 mg/ml BSA, filter sterilised and stored at 4° C.). • 2. 6 rounds of wash with 1× TBST after discarding the blocking solution. • 3. Precomplexing step (this step can be done at the same time as the blocking step, mentioned above), where the amplified phage library was incubated with each of the dsDNA baits in separate reactions. Each bait includes annealed double stranded DNA oligos (dsDNA), containing one of the PDS sites. […]

[5] = test system: PDS1 in an extended dsDNA target; assay: FRET experiment for binding/unwinding of dsDNA and RNA hybridization; assay type: biochemical; settings: FAM-tagged targeting RNA, target DNA tagged with Cy5 or Texas Red
Protocol: FIG. 5: Schematic diagram illustrating a FRET experiment to assess specific binding and unwinding of a dsDNA target by peptide binding to a PDS with RNA hybridization. Results are also shown for binding of Peptide 1 (SEQ. ID. No. 37 as shown in Table 2) to PDS1 having the 5′ to 3′ sequence GAGGTC. The FRET signal was determined upon incubation of the PDS1 containing dsDNA targets with 5′ FAM-RNA with (2, 4) or without peptide (1, 3).
A FRET experiment was carried out to assess the binding and unwinding activity of Peptide 1 with ability to facilitate RNA hybridization when presented with PDS1 in an extended dsDNA target as shown schematically in FIG. 5. It was hypothesized that, upon binding, Peptide 1 will cause some transient unwinding of the dsDNA which will facilitate binding of a targeting RNA. The fluorescent donor, 6-carboxyfluorescein (FAM), was used to tag an appropriate targeting RNA with a 15 bp complementary sequence. Target DNA was tagged with the fluorescent acceptor Cy5 at a 3′ end or Texas Red at a 5′-end.

[6] = test system: extended dsDNA containing the cognate PDS (PDS1); assay: T7E1 cleavage assay for peptide binding and unwinding of dsDNA target; assay type: biochemical; settings: chemically synthesized peptides, PDS1 as cognate PDS
Text: FIG. 4: Cleavage assay results using T7E1 enzyme for binding of the chemically synthesized peptides 1, 2, 3 and 4 (Table 2 in Example 1) to the two 6 nt sequences as above designated PDS1 and PDS2 in a dsDNA target and unwinding of the dsDNA target.
It was reasoned that the phage clones with the selected DNA binding peptides will alter a DNA duplex in a region presenting the cognate PDS, which may result in recognition by DNA nucleases, such as T7E1, commonly used to detect insertions or deletions (indels), which result from the activity of genome editing enzymes, such as Cas9, Cas12a etc. Results of such cleavage assays for destabilized DNA duplex using the extended dsDNA baits as set out in Table 3 below and T7E1 and Surveyor enzymes support this hypothesis (see FIGS. 3a-c), i.e. that binding of the clones presenting the selected fused peptides to dsDNA destabilizes the structure of the DNA duplex in a manner facilitating accessibility for RNA hybridization.
The modified peptides as set out in Table 2 were used to test the sequences for use as DNA-binding domains without M13 phage connection. The modifications included amidation and acetylation at the […] to reflect natural peptide modifications to improve peptide stability and prevent degradation. In the case of Peptides 1 and 3, an additional C-terminal linker (GGS) was provided as noted above. […]

[7] = test system: PDS1 dsDNA bait (GAGGTC); assay: ELISA / bio-panning of M13 phage display peptides on biotinylated dsDNA bait PDS1; assay type: binding; settings: peptide displayed in the phage library
Text: as §1, §2, §3

[8] = test system: nanoluciferase expression cassette with PDS variants in the target region; assay: Nanoluciferase detection assay for binding ability of the DBD to variant PDSs (ApGet-i); assay type: cell-based; settings: EPI300 cells, ApGet-i induced with ATC, nanoluciferase induced with IPTG
Text: As noted above the DBD of sequence SLETWLKHREKDGGS (SEQ. ID. No. 4) was selected on the basis of binding affinity for the dsDNA sequence represented by the 5′ to 3′ sequence 5′GAGGTC3′ (the initially chosen predetermined sequence (PDS) for use in targeting). A further study was undertaken to determine the importance of various nucleotides in this PDS for binding to the same DBD using a nanoluciferase detection assay (Promega). This was on the basis of the prior observation as noted above that expression of ApGet-i in bacteria can suppress transcription of sequences containing target sites for the NAC plus the PDS used for DBD selection.
A nanoluciferase expression cassette was cloned in a second plasmid vector (the Detector plasmid) with the PDS as originally used for DBD selection and variants of that PDS in the target region as shown in FIG. 22.
Bacterial cells were transformed with the Editor plasmid in which ApGet-i expression was under the control of a TetR promoter. The NAC was also expressed by the same plasmid under the control of a constitutive J23119 promoter. The Detector and Editor plasmids were provided with different resistance genes and compatible origins of replication. […] The signal of the nanoluciferase was monitored on the microplate reader and normalized to take account of the degree of bacterial growth in the culture. […]

IHIDISI [bN]
cleavage of plasmid [1]: some cleavage
percentage of nicked plasmid with increasing peptide concentration ([1]; Zn2+ ions): increase in the percentage of nicked plasmid
signal with increasing peptide concentration, Zn2+ ions ([2]; Zn2+ ions, peptide 0-800 μM): still increase up to 800μM
signal without any metal ions ([2]; no metal): high signal
signal for the disassembly of the molecular beacon with increasing peptide concentration ([2]; peptide 0-800 μM, Mn2+ or Zn2+): general increase
signal with Mn2+ ions compared with Mg2+ ions ([2]; peptide concentration 400 μM, beacon 400 nM): greater than the bN peptide with Mg^2 + ions
emission signal of the fluorophore after a 15-minute incubation [2]: relatively high emission signal
signal / disassembly of the molecular beacon with different metal ions [2]: high increase in the signal regardless of the metal; also recorded: greater with Mn^2 + ions

IEIDIHI [ibD]
aggregation / precipitation of peptide [3]: no observable aggregates even at the highest tested concentration

AGDWESWTNGSW [Peptide 4]
binding to the PDS2 dsDNA bait [4]: binding to the PDS2 dsDNA bait

LDLDLKLHL [bL]
cleavage of plasmid [1]: some cleavage
amount of nicked plasmid at higher peptide concentrations (greater than 600 μM) ([1]; Zn2+ ions, 12 hours): continues to increase
percentage of nicked plasmid with increasing peptide concentration ([1]; Zn2+ ions): increase in the percentage of nicked plasmid
emission signal of the fluorophore after a 15-minute incubation [2]: relatively high emission signal
signal / disassembly of the molecular beacon with different metal ions [2]: more extensive in the presence of zinc chloride ions

SLETWLKHREKDGGS [Peptide 1]
RNA-DNA hybridisation reflected by FRET signal [5]: shown to be facilitated; also recorded: increase of FRET signal
binding and non-duplex structure formation (T7E1 cleavage) [6]: best candidate to be a DNA-binding domain

SLETWLKHREKD [Peptide 2]
binding ability for the PDS1 dsDNA bait [7]: high binding ability

SLETWLKHREKDGGS (DBD) [DBD of SEQ. ID. No. 4]
inhibition of luciferase expression with different PDSs ([8]; listed as DBD): effective in inhibiting expression of the luciferase
inhibition of luciferase expression with different PDSs ([8]; listed as DBD of SEQ. ID no. 4): shown to be effective
